Reference: US6596687B1, “Cell adhesion inhibitors” (Biogen, Inc., priority 1995, dated 2003)
Where two headings read alike, the source gives them in different places. Numbered stars: 1 amine (or outer) side, 2 acyl side, 3 side chain; on linkers, the order of the positions; unused ones are H or OH. Square brackets hold non-standard residues; d marks the D form. Peptide text beside a SMILES is read from it. * marks the point of attachment. X2 = O=C(Cc1ccc(N[*:1])cc1)[*:2]; Suc = O=C(CCC(=O)[*:2])[*:1]; PhAc = O=C(Cc1ccccc1)*; CO = O=C([*:1])[*:2]; NHPh = c1ccc(N*)cc1; Bn = c1ccc(C*)cc1

Biological target: T1, VLA4 (Homo sapiens, UniProt P05556+P13612)
T1 construct: endogenous in cells; host or cells: Ramos cells
T1 sequence (P13612 34-1032): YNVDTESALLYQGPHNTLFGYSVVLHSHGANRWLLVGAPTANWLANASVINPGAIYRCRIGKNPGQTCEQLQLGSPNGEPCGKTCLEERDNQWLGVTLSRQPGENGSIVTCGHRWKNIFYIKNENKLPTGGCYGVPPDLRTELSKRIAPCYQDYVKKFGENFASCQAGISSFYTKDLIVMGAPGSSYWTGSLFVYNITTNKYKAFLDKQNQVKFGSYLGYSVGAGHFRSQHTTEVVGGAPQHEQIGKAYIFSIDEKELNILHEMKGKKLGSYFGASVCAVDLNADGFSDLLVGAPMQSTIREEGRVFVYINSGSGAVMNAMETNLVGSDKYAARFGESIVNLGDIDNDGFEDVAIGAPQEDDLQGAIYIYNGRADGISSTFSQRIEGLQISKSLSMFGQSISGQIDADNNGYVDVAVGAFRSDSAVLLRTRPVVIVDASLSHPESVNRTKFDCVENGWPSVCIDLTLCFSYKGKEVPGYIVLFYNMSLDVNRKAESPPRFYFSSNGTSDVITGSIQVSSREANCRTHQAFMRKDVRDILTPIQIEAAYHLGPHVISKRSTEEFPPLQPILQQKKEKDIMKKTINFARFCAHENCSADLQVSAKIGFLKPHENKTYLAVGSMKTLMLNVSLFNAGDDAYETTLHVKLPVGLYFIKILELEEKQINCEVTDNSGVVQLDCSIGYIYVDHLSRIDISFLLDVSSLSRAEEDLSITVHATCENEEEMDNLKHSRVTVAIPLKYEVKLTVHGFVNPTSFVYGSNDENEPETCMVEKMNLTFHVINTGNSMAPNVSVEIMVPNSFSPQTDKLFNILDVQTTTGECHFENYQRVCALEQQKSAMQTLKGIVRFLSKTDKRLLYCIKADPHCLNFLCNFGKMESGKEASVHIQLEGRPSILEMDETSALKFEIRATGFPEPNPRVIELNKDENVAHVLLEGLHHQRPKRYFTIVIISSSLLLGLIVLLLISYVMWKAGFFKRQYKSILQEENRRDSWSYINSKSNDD
T1 sequence (P05556 21-798): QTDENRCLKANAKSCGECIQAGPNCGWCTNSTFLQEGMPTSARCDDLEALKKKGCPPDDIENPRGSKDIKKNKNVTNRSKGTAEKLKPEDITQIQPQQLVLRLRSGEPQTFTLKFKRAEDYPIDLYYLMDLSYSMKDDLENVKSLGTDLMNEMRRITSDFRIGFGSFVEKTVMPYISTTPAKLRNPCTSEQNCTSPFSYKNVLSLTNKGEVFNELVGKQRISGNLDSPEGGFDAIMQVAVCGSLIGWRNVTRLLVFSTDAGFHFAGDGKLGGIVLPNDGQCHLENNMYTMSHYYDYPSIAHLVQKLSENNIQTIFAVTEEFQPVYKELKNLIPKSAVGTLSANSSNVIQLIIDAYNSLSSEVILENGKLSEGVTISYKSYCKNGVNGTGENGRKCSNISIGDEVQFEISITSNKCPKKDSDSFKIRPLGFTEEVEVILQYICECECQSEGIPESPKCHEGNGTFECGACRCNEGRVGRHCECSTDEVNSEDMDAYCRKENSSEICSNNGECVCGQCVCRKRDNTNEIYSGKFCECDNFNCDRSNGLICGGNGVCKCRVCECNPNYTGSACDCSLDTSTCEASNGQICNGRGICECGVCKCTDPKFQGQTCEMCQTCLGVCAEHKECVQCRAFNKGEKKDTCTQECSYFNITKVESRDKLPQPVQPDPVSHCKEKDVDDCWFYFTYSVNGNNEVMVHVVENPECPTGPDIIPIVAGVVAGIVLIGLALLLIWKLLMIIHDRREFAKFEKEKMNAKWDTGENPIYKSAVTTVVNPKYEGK
Experiment: Inhibition of VLA4-dependent adhesion of Ramos cells to BSA-CS1
Type: cell-based
Excerpt: For example, the cell adhesion inhibitory activity of these compounds may be measured by determining the concentration of inhibitor required to block the binding of VLA-4-expressing cells to fibronectin- or CS1-coated plates. In this assay microtiter wells are coated with either fibronectin (containing the CS1-sequence) or CS-1. If CS-1 is used, it must be conjugated to a carrier protein, such as bovine serum albumin, in order to bind to the wells. Once the wells are coated, varying concentrations of the test compound are then added together with appropriately labelled, VLA-4-expressing cells. Alternatively, the test compound may be added first and allowed to incubate with the coated wells prior to the addition of the cells. The cells are allowed to incubate in the wells for at least 30 minutes. Following incubation, the wells are emptied and washed. Inhibition of binding is measured by quantitating the fluorescence or radioactivity bound to the plate for each of the various concentrations of test compound, as well as for controls containing no test compound.
VLA-4-expressing cells that may be utilized in this assay include Ramos cells, Jurkat cells, A375 melanoma cells, as well as human peripheral blood lymophocytes (PBLs). The cells used in this assay may be fluorescently or radioactively labelled.
This assay was used to assess the potency of VLA4-directed inhibitory compounds of this invention. 1.
We dissolved BSA-SMCC (Pierce Chemical, Rockford, Ill.; Catalog #77115) in H2O at a concentration of 10 mg/mL. [SEQ ID NO:4]: […](“Cys-Tyr-CS1 peptide”), which we synthesized by conventional solid phase chemistry and purified by HPLC, was dissolved in 10 mM HEPES pH 5, 50 mM NaCl and 0.1 mM EDTA also at a concentration of 10 mg/mL. We then mixed 500 μL of BSA-SMCC, 250 μL of Cys-Tyr-CS1 peptide and 75 μL of 1 mM HEPES pH 7.5 and allowed the conjugation reaction to proceed for 30 minutes. We stopped the reaction by adding 1 μL of beta-mercaptoethanol. Samples were analyzed for cross-linking by SDS-PAGE.
We coated the wells of a Linbro titertek polystyrene 96-well flat bottom plate (Flow Laboratories, Maclean, Va.; catalog #76-231-05) with 100 μL of the above-described BSA-CS1 solution diluted to 1 μg/mL in 0.05 M NaHCO3 (15 mM NaHCO3, 35 mM Na2CO3) pH 9.2. Some wells were not coated with CS1 in order to assess non-specific cell binding (NSB). The plate was then incubated overnight at 4° C.
Following this incubation, the contents of the wells were removed by inverting and blotting the plate. All of the wells were then blocked with 100 μL of 1% BSA in PBS, 0.02% NaN3, for a minimum of one hour at room temperature.
Ramos cells are grown, maintained and labelled in RPMI 1640 culture medium containing 1% BSA. Just prior to running the assay, we added 2′, 7′-bis-(2-carboxyethyl)-5(and -6)carboxyfluorescein acetoxymethyl ester (“BCECF-AM”; Molecular Probes Inc., Eugene, Oregon; catalog #B-1150) to a final concentration of 2 μM to a culture of Ramos cells (4×10^6 cells/mL). We incubated the cells for 20 minutes at 37° C.
Following labelling, the cells were washed twice in assay buffer (24 mM TRIS, 137 mM NaCl, 2.7 mM KCl, pH 7.4, containing 0.1 BSA and 2mM glucose) to remove any cations originating from the culture medium. The cells were then resuspended in assay buffer to 4×10^6 cells/mL and 2 mM MnCl2 was added to upregulate VLA4 on the surface of the cells.
Immediately prior to running the assay, we removed the BSA blocking solution from the 96-well plates and washed the wells with 100 μL of assay buffer. We then added to each well 25 μL of test cell adhesion inhibitory compound at 2×the final concentration and 25 μL of the labelled Ramos cells. […] Each concentration of compound was tested in triplicate. The compound and cells are allowed to incubate for 30 minutes at room temperature.

[1] = Ramos cells, BSA-CS1 coated wells, 2 mM MnCl2, 30 minutes at room temperature, read-out: IC50

Row | SMILES | IC50 [1] [µM] | IC50 [µM]
1 | CNC(=O)[C@@H](NC(=O)[C@H](CC(=O)O)NC(=O)[C@H](CC(C)C)N(C)C(=O)c1ccc(OC)cc1)C(C)C [Compound 128] | > 10 | 
2 | CC(C)C[C@@H](C(=O)N[C@@H](CC(=O)O)C(=O)N[C@H](C(=O)O)C(C)C)N(C)C(=O)c1ccccc1 [Compound 113] (HELM PEPTIDE1{[O=C(c1ccccc1)[*:2]].[meL].D.V}$$$$V2.0) | > 10 | 
3 | COC(=O)[C@@H](NC(=O)[C@H](CC(=O)O)NC(=O)[C@H](CC(C)C)NC(=O)CCc1ccc(O)cc1)C(C)C [Compound 19] | > 10 | 
4 | CC(C)C[C@H](NC(=O)CCc1ccc(O)cc1)C(=O)N[C@@H](CC(=O)O)C(=O)N(CC(C)C)CC(C)C [Compound 117] | > 10 | 
5 | COC(=O)[C@@H](NC(=O)[C@H](CC(=O)O)NC(=O)[C@H](CC(C)C)N(Cc1ccccc1)C(C)=O)C(C)C [Compound 28] | > 10 | 
6 | CC(C)C[C@H](NC(=O)c1ccc2ccccc2n1)C(=O)N[C@@H](CC(=O)O)C(=O)N[C@H](C(=O)NC(C)(C)C)[C@@H](C)O [Compound 60] | > 10 | 
7 | COC(=O)[C@@H]1CCCN1C(=O)[C@@H](NC(=O)[C@H](CC(=O)O)NC(=O)[C@H](CC(C)C)NC(=O)CCc1ccccc1)C(C)C [Compound 37] | > 10 | 
8 | CC(C)C[C@H](NC(=O)CCC(=O)Nc1ccccc1)C(=O)N[C@@H](CC(=O)O)C(=O)N[C@H](C(=O)O)C(C)C [Compound 107] ({NHPh-Suc}-Leu-Asp-Val-OH) | > 10 | 
9 | CC(C)C[C@H](NC(=O)CCc1ccccc1)C(=O)N[C@@H](CC(=O)O)C(=O)N[C@H](C(=O)N1CCC[C@H]1C(=O)O)C(C)C [Compound 36] | > 10 | 
10 | COC(=O)[C@@H]1CCCN1C(=O)[C@@H](NC(=O)[C@H](CC(=O)O)NC(=O)[C@H](CC(C)C)NC(=O)c1ccc2ccccc2n1)C(C)C [Compound 41] | 0.05 to 10 | 
11 | CC(C)C[C@H](NC(=O)[C@H](CC(=O)O)NC(=O)c1cc2ccccc2cn1)C(=O)O [Compound 89] | > 10 | 
12 | CC(C)C[C@H](NC(=O)C1CCOC1)C(=O)N[C@@H](CC(=O)O)C(=O)N[C@H](C(=O)O)C(C)C (stereo partly drawn) [Compound 79] | > 10 | 
13 | COC(=O)[C@@H](NC(=O)[C@H](CC(=O)O)NC(=O)[C@H](CC(C)C)N(C)C(=O)CCCc1ccccc1)C(C)C [Compound 143] | > 10 | 
14 | CC(C)C[C@H](NC(=O)c1cc2ccccc2cn1)C(=O)N[C@@H](CC(=O)O)C(=O)N[C@H](C(=O)O)C(C)C [Compound 69] | > 10 | 
15 | CC(C)CNC(=O)[C@@H](CC(=O)O)NC(=O)[C@H](CC(C)C)NC(=O)CCc1ccc(O)cc1 [Compound 15] | > 10 | 
16 | COC(=O)[C@@H](NC(=O)[C@H](CC(=O)O)NC(=O)[C@H](CC(C)C)N(C)C(=O)Cc1ccc(O)cc1)C(C)C [Compound 141] | > 10 | 
17 | CC(C)C[C@H](NC(=O)C1CCc2ccccc2N1)C(=O)N[C@@H](CC(=O)O)C(=O)N[C@H](C(=O)N1CCC(c2ccccc2)CC1)C(C)C (stereo partly drawn) [Compound 115] |  | > 10
18 | CC(C)[C@H](NC(=O)[C@H](CC(=O)O)NC(=O)c1ccccn1)C(=O)O [Compound 78] | > 10 | 
19 | CC(C)C[C@H](NC(=O)c1cc2ccccc2cn1)C(=O)N[C@@H](CC(=O)O)C(=O)N[C@@H](Cc1ccccc1)C(=O)O [Compound 93] | > 10 | 
20 | CC(C)[C@H](NC(=O)[C@H](CC(=O)O)NC(=O)C1CCc2ccccc2C1)C(=O)O (stereo partly drawn) [Compound 75] | > 10 | 
21 | CC(C)C[C@H](NC(=O)c1ccc2ccccc2n1)C(=O)N[C@@H](CC(=O)O)C(=O)N[C@H](C(=O)O)C(C)C [Compound 94] | > 10 | 
22 | CC(C)C[C@H](NC(=O)CC(c1ccccc1)c1ccccc1)C(=O)N[C@@H](CC(=O)O)C(=O)N[C@H](C(=O)O)C(C)C [Compound 95] | > 10 | 
23 | CC(C)C[C@H](NC(=O)C1CCc2ccccc2N1)C(=O)N[C@@H](CC(=O)O)C(=O)N[C@H](C(=O)Nc1ccccc1)C(C)C (stereo partly drawn) [Compound 124] | > 10 | 
24 | CC(C)C[C@H](NC(=O)c1ccc2ccccc2n1)C(=O)N[C@@H](CC(=O)O)C(=O)N[C@H](C(=O)N1CCOCC1)[C@@H](C)O [Compound 61] | 0.05 to 10 | 

Now from value to molecule, other results behind:

Row | IC50 [1] [µM] | SMILES | IC50 [µM]
25 | < 0.05 | CC(C)C[C@H](NC(=O)Cc1ccc(NC(=O)Nc2ccccc2)cc1)C(=O)N[C@@H](CC(=O)O)C(=O)N[C@H](C(=O)O)C(C)C [Compound 203] | 
26 | > 10 | CC(C)CNC(=O)[C@H](CC(=O)O)NC(=O)[C@@H]1CCCN1C(=O)CCc1ccc(O)cc1 [Compound 331] | 
27 | > 10 | CNC(=O)[C@H](COCc1ccccc1)NC(=O)[C@H](CC(=O)O)NC(=O)[C@H](CC(C)C)NC(=O)c1ccc2ccccc2n1 [Compound 353] | 
28 | > 10 | COc1ccc(C(=O)N[C@@H](CC(C)C)C(=O)N[C@@H](CC(=O)O)C(=O)NCC(C)C)cc1 [Compound 165] | 
29 | > 10 | CC(C)CNC(=O)[C@H](CC(=O)O)NC(=O)[C@H](CC(C)C)NC(=O)CNC(=O)c1ccccc1 [Compound 163] | 
30 | < 0.05 | CC[C@H](C)[C@H](NC(=O)Cc1ccc(NC(=O)Nc2ccccc2C)cc1)C(=O)N[C@@H](CC(=O)O)C(=O)N[C@@H](CCC(=O)O)C(N)=O [Compound 290] | 
31 | > 10 | CC(C)CNC(=O)[C@H](CC(=O)O)NC(=O)[C@H](CC(C)C)NC(=O)NC(C)(C)C [Compound 171] | 
32 | 0.05 to 10 | CNC(=O)[C@@H](NC(=O)[C@H](CC(=O)O)NC(=O)[C@H](CC(C)C)NC(=O)Cc1ccc(NC(=O)Nc2ccccc2)cc1)C(C)C [Compound 204] | 
33 | 0.05 to 10 | CC[C@H](C)[C@H](NC(=O)Cc1ccc(NC(=O)Nc2ccccc2)cc1)C(=O)N[C@@H](CC(=O)O)C(=O)N[C@H](C(=O)N1CCC[C@H]1C(N)=O)C(C)C [Compound 209] ({NHPh-CO}-[X2]IDVP-NH2) | 
34 | 0.05 to 10 | CC(C)C[C@H](NC(=O)Cc1ccc(NC(=O)Nc2ccccc2)cc1)C(=O)N[C@@H](CC(=O)O)C(=O)N[C@H](C(=O)NC(C)C)C(C)C [Compound 319] | 
35 | > 10 | CNC(=O)[C@@H](NC(=O)[C@H](CC(=O)O)NC(=O)[C@H](CCCCN)NC(=O)Cc1ccccc1)C(C)C [Compound 350] (HELM PEPTIDE1{[O=C(Cc1ccccc1)[*:2]].K.D.V.[CN[*:1]]}$$$$V2.0) | 
36 | < 0.05 | Cc1ccccc1NC(=O)Nc1ccc(CC(=O)N[C@@H](CCC(=O)O)C(=O)N[C@@H](CC(=O)O)C(=O)N[C@@H](CC(=O)O)C(N)=O)cc1 [Compound 263] | 
37 | 0.05 to 10 | CC(C)C[C@H](NC(=O)Cc1ccc(NC(=O)Nc2ccccc2)cc1)C(=O)N[C@@H](CC(=O)O)C(=O)N[C@H](C(=O)NCc1ccccc1)C(C)C [Compound 321] | 
38 | 0.05 to 10 | CC(C)C[C@H](NC(=O)c1ccc2ccccc2n1)C(=O)N[C@@H](CC(=O)O)C(=O)NC(CO)C(C)C (stereo partly drawn) [Compound 174] | 
39 | > 10 | CC(C)CNC(=O)[C@H](CC(=O)O)NC(=O)[C@H](CC(C)C)NC(=O)CCc1ccccc1 [Compound 162] | 
40 | > 10 | CC(C)C[C@H](NC(=O)c1ccc2ccccc2n1)C(=O)N[C@@H](CC(=O)OCc1ccccc1)C(=O)N[C@H](C(=O)O)C(C)C [Compound 159] | 
41 | < 0.05 | CSCC[C@H](NC(=O)[C@H](CC(=O)O)NC(=O)[C@H](CCC(N)=O)NC(=O)Cc1ccc(NC(=O)Nc2ccccc2C)cc1)C(N)=O [Compound 303] | 
42 | > 10 | CNC(=O)[C@H](COCc1ccccc1)NC(=O)[C@H](CC(=O)O)NC(=O)[C@H](CC(C)C)NC(=O)Cc1ccccc1 [Compound 352] (PhAc-Leu-Asp-Ser(Bn)-NHMe) | 
